Measurements: ChEMBL document CHEMBL2176989, “Design, synthesis, and pharmacological evaluation of piperidin-4-yl amino aryl sulfonamides: novel, potent, selective, orally active, and brain penetrant 5-HT₆ receptor antagonists” (J Med Chem, 2012)

Key:
[1] = target: 5-hydroxytryptamine receptor 6 (Homo sapiens) (UniProt P50406); assay: Antagonist activity at human recombinant 5HT6 receptor expressed in CHO cells assessed as inhibition of 5HT-induced luciferase activity after 4 hrs by reporter gene assay; assay type: functional, cell-based
[2] = target: 5-hydroxytryptamine receptor 6 (Homo sapiens) (UniProt P50406); assay: Antagonist activity at human recombinant 5HT6 receptor expressed in CHO cells assessed as inhibition of 5HT-induced luciferase activity after 4 hrs by reporter gene assay relative to control; assay type: functional, cell-based
[3] = Ratio of drug uptake in brain to plasma in Wistar rat at 10 mg/kg, po after 1 hr; assay type: ADME, organism-based; design: dose 10 mg/kg, route oral; conditions: read-out: BPR
[4] = Half life in Wistar rat at 5 mg/kg, iv; assay type: ADME, organism-based; design: dose 5 mg/kg, route intravenous; conditions: in vivo
[5] = Drug metabolism in human liver microsomes at 2.5 uM at 30 mins by LC-MS/MS analysis; assay type: ADME, Microsome; conditions: read-out: Drug metabolism
[6] = Tmax in fasted Wistar rat at 10 mg/kg, po; assay type: ADME, organism-based; design: dose 10 mg/kg, route oral; conditions: in vivo
[7] = Drug metabolism in Wistar rat liver microsomes at 2.5 uM at 30 mins by LC-MS/MS analysis; assay type: ADME, Microsome; conditions: read-out: Drug metabolism
[8] = Cmax in fasted Wistar rat at 10 mg/kg, po; assay type: ADME, organism-based; design: dose 10 mg/kg, route oral; conditions: in vivo
[9] = Apparent volume of distribution in Wistar rat at 5 mg/kg, iv; assay type: ADME, organism-based; design: dose 5 mg/kg, route intravenous; conditions: in vivo, read-out: Vz
[10] = AUC (0 to 24 hrs) in fasted Wistar rat at 10 mg/kg, po; assay type: ADME, organism-based; design: time < 24 hr, dose 10 mg/kg, route oral; conditions: plasma
Cytochrome P450 2D6 = Cytochrome P450 2D6 (Homo sapiens, UniProt P10635); assay: Inhibition of CYP2D6 in human liver microsomes using dextromethorphan as substrate after 10 mins by LC-MS/MS analysis in presence of NADPH
[11] = Clearance in Wistar rat at 5 mg/kg, iv; assay type: ADME, organism-based; design: dose 5 mg/kg, route intravenous; conditions: in vivo
[12] = AUC (0 to 24 hrs) in Wistar rat at 5 mg/kg, iv; assay type: ADME, organism-based; design: time < 24 hr, dose 5 mg/kg, route intravenous; conditions: plasma
[13] = Oral bioavailability in fasted Wistar rat at 10 mg/kg; assay type: ADME, organism-based; conditions: in vivo
[14] = target: Voltage-gated inwardly rectifying potassium channel KCNH2 (Homo sapiens, UniProt Q12809); assay: Displacement of [3H]astemizole from human ERG by microbeta scintillation counting
Chain of Voltage-gated inwardly rectifying potassium channel KCNH2 (Q12809 whole entry): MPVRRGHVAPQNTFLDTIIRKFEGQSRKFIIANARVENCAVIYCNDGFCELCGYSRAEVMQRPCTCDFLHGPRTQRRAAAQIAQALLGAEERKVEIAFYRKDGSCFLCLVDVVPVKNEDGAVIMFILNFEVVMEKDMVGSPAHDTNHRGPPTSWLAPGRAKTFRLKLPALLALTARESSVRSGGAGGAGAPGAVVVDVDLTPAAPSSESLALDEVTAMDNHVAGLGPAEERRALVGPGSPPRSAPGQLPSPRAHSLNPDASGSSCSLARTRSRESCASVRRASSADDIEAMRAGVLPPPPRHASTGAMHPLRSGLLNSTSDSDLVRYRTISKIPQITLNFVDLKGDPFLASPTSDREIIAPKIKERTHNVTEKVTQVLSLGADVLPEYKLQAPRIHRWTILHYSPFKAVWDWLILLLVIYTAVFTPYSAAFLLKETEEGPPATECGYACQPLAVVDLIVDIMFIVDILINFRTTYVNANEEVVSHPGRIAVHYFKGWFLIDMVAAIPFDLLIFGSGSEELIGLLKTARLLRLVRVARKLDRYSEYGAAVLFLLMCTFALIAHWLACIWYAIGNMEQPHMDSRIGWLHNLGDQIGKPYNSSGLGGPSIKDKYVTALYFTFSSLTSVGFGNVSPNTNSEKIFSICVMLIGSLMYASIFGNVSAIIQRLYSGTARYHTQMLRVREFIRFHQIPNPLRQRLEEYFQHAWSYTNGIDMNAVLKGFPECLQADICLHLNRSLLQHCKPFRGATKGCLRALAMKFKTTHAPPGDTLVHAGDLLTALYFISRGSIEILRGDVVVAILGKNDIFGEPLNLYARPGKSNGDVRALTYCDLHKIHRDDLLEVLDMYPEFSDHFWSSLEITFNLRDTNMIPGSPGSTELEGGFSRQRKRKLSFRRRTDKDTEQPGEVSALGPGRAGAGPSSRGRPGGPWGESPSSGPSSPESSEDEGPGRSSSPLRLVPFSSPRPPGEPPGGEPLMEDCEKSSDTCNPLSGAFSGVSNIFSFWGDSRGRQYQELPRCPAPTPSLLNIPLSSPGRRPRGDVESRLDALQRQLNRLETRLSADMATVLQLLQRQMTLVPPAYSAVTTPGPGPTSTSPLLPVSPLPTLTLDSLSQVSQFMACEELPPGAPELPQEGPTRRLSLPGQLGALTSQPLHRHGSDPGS

Chain of 5-hydroxytryptamine receptor 6 (Homo sapiens) (P50406 whole entry): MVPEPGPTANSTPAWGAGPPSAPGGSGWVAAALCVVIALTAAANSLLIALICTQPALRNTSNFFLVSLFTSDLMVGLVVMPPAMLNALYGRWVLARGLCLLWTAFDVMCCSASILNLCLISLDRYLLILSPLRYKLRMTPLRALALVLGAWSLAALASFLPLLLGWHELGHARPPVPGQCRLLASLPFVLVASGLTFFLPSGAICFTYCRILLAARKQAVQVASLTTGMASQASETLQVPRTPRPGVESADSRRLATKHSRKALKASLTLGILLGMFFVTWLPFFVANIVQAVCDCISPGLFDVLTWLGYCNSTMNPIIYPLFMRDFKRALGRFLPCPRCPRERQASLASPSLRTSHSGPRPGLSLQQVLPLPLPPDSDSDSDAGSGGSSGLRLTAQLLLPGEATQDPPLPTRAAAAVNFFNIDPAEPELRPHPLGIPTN
Chain of Cytochrome P450 2D6 (P10635 whole entry): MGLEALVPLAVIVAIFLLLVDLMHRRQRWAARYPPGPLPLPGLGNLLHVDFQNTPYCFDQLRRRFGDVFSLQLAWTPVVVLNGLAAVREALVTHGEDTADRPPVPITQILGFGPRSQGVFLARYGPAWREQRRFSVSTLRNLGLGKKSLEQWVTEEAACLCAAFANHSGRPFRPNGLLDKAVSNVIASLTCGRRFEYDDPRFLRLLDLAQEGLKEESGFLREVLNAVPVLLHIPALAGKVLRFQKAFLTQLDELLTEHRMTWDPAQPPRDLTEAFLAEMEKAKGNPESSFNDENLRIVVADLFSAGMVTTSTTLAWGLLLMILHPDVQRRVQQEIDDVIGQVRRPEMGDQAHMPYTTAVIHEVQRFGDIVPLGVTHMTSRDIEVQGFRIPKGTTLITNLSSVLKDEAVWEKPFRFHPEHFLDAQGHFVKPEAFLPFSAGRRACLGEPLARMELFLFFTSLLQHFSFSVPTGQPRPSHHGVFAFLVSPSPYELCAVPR

| Compound | Kb [1] [nM] | Imax [2] [%] | also measured |
| --- | --- | --- | --- |
| COc1ccc(S(=O)(=O)n2ccc3cc(Br)ccc32)cc1NC1CCNCC1 | 3.2 | 99 | – |
| Cc1cn(S(=O)(=O)c2cccc(NC3CCN(C)CC3)c2)c2ncc(Cl)cc12 | 4 | 99 | – |
| CCc1ccc(S(=O)(=O)n2ccc3cc(F)ccc32)cc1NC1CCN(C)CC1 | 18.3 | 95 | – |
| CN1CCC(Nc2cc(S(=O)(=O)n3ccc4ccccc43)ccc2F)CC1 | 1.6 | 100 | – |
| COc1ccc2c(ccn2S(=O)(=O)c2ccc(C)c(NC3CCN(C)CC3)c2)c1 | 51.3 | 70 | – |
| COc1ccc(S(=O)(=O)n2ccc3cc(Cl)ccc32)cc1NC1CCN(C)CC1 | 4.37 | 98 | – |
| COc1ccc(S(=O)(=O)N2CCc3ccccc3C2)cc1NC1CCN(C)CC1 | 0.07 | 98 | Kp at 1 h [3]: 0.24 |
| COc1cnc2c(ccn2S(=O)(=O)c2ccc(OC)c(NC3CCN(C)CC3)c2)c1 | 12 | 90 | – |
| Cc1cn(S(=O)(=O)c2ccc(F)c(NC3CCN(C)CC3)c2)c2ccccc12 | 0.52 | 100 | – |
| COc1ccc(S(=O)(=O)n2ccc3cc(OC(C)C)ccc32)cc1NC1CCN(C)CC1 | 2.2 | 100 | – |
| CN1CCC(Nc2cccc(S(=O)(=O)n3ccc4ccc(Cl)cc43)c2)CC1 | 2.39 | 98 | – |
| COc1ccc(S(=O)(=O)n2cc(C)c3cc(Cl)cnc32)cc1NC1CCNCC1 | 0.1 | 97 | – |
| COc1ccc(S(=O)(=O)n2cc(C)c3ccc(Cl)cc32)cc1NC1CCN(C)CC1 | 0.1 | 100 | – |
| CN1CCC(Nc2cccc(S(=O)(=O)n3ccc4ccccc43)c2)CC1 | 3.19 | 92 | – |
| COc1ccc(S(=O)(=O)n2nc(C)c3cc(Cl)ccc32)cc1NC1CCN(C)CC1.O=C(O)C(O)C(O)C(=O)O | 0.6 | 100 | half-life [4]: 1.7 h; metabolised at 0.5 h, 2.5 µM [5]: 60%; Tmax [6]: 2 h; metabolised at 0.5 h, 2.5 µM [7]: 69%; Cmax [8]: 57 ng/mL; Vd [9]: 16 L/kg; AUC(0-t) at 24 h [10]: 300 ng·h/mL; Kp at 1 h [3]: 0.5; IC50 (Cytochrome P450 2D6): 14500 nM; clearance [11]: 143 mL/min/kg; AUC(0-t) at 24 h [12]: 600 ng·h/mL; bioavailability [13]: 25% |
| Cc1ccc(S(=O)(=O)n2ccc3cc(F)ccc32)cc1NC1CCN(C)CC1 | 7.5 | 97 | – |
| COc1ccc2ccn(S(=O)(=O)c3cccc(NC4CCN(C)CC4)c3)c2c1 | 1.2 | 100 | – |
| COc1ccc(S(=O)(=O)N2CCOc3ccc(Cl)cc32)cc1NC1CCN(C)CC1 | 0.1 | 100 | half-life [4]: 0.7 h; metabolised at 0.5 h, 2.5 µM [5]: 70%; Tmax [6]: 0.5 h; metabolised at 0.5 h, 2.5 µM [7]: 85%; Cmax [8]: 197 ng/mL; Vd [9]: 2.5 L/kg; AUC(0-t) at 24 h [10]: 384 ng·h/mL; Kp at 1 h [3]: 0.6; clearance [11]: 58 mL/min/kg; AUC(0-t) at 24 h [12]: 1450 ng·h/mL; bioavailability [13]: 12% |
| COc1ccc(S(=O)(=O)N2CCCc3ccccc32)cc1NC1CCNCC1 | 0.1 | 100 | – |
| COc1ccc2c(ccn2S(=O)(=O)c2cccc(NC3CCN(C)CC3)c2)c1 | 12.5 | 96 | – |
| COc1ccc(S(=O)(=O)n2cc(C)c3cc(F)ccc32)cc1NC1CCN(C)CC1 | 0.52 | 100 | Ki [14]: 950 nM |
| COc1ccc(S(=O)(=O)N2CCOc3ccc(F)cc32)cc1NC1CCN(C)CC1 | 0.1 | 100 | – |
| COc1ccc(S(=O)(=O)N2CCOc3ccc(C(F)(F)F)cc32)cc1NC1CCN(C)CC1 | 0.1 | 100 | – |
| CCc1ccc(S(=O)(=O)n2ccc3ccccc32)cc1NC1CCN(C)CC1 | 1.39 | 99 | – |
| COc1ccc(S(=O)(=O)n2ccc3cc(F)ccc32)cc1NC1CCN(C)CC1 | 1.8 | 100 | – |
| Cc1nn(S(=O)(=O)c2ccc(F)c(NC3CCN(C)CC3)c2)c2ccc(Cl)cc12 | 10.1 | 59 | – |

| Compound | Kb [1] [nM] | Imax [2] [%] | also measured |
| --- | --- | --- | --- |
| CCc1ccc(S(=O)(=O)n2ccc3ccc(Cl)cc32)cc1NC1CCN(C)CC1 | 5.3 | 98 | – |
| COc1ccc(S(=O)(=O)N2CCOc3ccc(C)cc32)cc1NC1CCN(C)CC1 | 0.1 | 100 | – |
| CCc1ccc(S(=O)(=O)n2ccc3c(Cl)cccc32)cc1NC1CCN(C)CC1 | 12.8 | 90 | – |
| COc1ccc(S(=O)(=O)n2ccc3ccc(F)cc32)cc1NC1CCN(C)CC1 | 0.2 | 100 | – |
| COc1ccc(S(=O)(=O)n2ccc3cc(Cl)cnc32)cc1NC1CCN(C)CC1 | 0.15 | 98 | – |
| CN1CCC(Nc2cccc(S(=O)(=O)n3ccc4cc(Br)ccc43)c2)CC1 | 10.3 | 98 | – |
| COc1ccc2c(C)cn(S(=O)(=O)c3ccc(OC)c(NC4CCN(C)CC4)c3)c2c1 | 0.1 | 100 | – |
| COc1ccc2ccn(S(=O)(=O)c3ccc(OC)c(NC4CCN(C)CC4)c3)c2c1.O=P(O)(O)O | 0.1 | 100 | Kp at 1 h [3]: 0.6 |
| Cc1nn(S(=O)(=O)c2ccc(Cl)c(NC3CCN(C)CC3)c2)c2ccc(Cl)cc12 | 28.6 | 39 | – |
| Cc1ccc(S(=O)(=O)n2cc(C)c3cc(Cl)cnc32)cc1NC1CCN(C)CC1 | 3.9 | 97 | – |
| COc1ccc(S(=O)(=O)n2cc(C)c3nc(Cl)ccc32)cc1NC1CCN(C)CC1 | 1.7 | 98 | – |
| COc1ccc2c(ccn2S(=O)(=O)c2ccc(F)c(NC3CCN(C)CC3)c2)c1 | 11.7 | 95 | – |
| COc1ccc(S(=O)(=O)n2cc(C)c3cc(Cl)ncc32)cc1NC1CCN(C)CC1 | 1.3 | 85 | – |
| COc1ccc(S(=O)(=O)n2ccc3cc(F)ccc32)cc1NC1CCNCC1 | 0.3 | 100 | – |
| COc1ccc(S(=O)(=O)n2ccc3ccccc32)cc1NC1CCN(C)CC1 | 1.22 | 100 | – |
| COc1ccc(S(=O)(=O)N2CC(C)(C)Oc3ccc(F)cc32)cc1NC1CCN(C)CC1 | 0.1 | 100 | – |
| COc1cnc2c(c1)c(C)cn2S(=O)(=O)c1ccc(OC)c(NC2CCN(C)CC2)c1 | 2.3 | 95 | – |
| COc1ccc2c(ccn2S(=O)(=O)c2ccc(OC)c(NC3CCN(C)CC3)c2)c1 | 3.8 | 96 | – |
| CN1CCC(Nc2cc(S(=O)(=O)n3ccc4cc(Br)ccc43)ccc2F)CC1 | 16 | 94 | – |
| COc1ccc(S(=O)(=O)N2CCOc3ccccc32)cc1NC1CCN(C)CC1 | 0.2 | 100 | Ki [14]: > 10000 nM |
| COc1ccc(S(=O)(=O)n2ccc3ccc(Cl)cc32)cc1NC1CCN(C)CC1 | 0.14 | 100 | – |
| COc1ccc(S(=O)(=O)N2CCCc3ccccc32)cc1NC1CCN(C)CC1 | 0.06 | 100 | Kp at 1 h [3]: 0.02 |
| COc1ccc2ccn(S(=O)(=O)c3ccc(Cl)c(NC4CCN(C)CC4)c3)c2c1 | 3.3 | 100 | – |
| COc1ccc(S(=O)(=O)n2ccc3ccc(F)cc32)cc1NC1CCNCC1 | 0.3 | 100 | – |
| COc1ccc2ccn(S(=O)(=O)c3ccc(C)c(NC4CCN(C)CC4)c3)c2c1 | 0.25 | 98 | – |
| COc1ccc(S(=O)(=O)n2ccc3cc(Br)ccc32)cc1NC1CCN(C)CC1 | 1.91 | 97 | – |
